Assay results from PubChem BioAssay AID248 (DTP/NCI, 2004).
Where “and” joins values, the source holds several entries; their conditions need not be identical. Identical values can stand only once. Toxic doses and inconclusive results are not listed. No stated cut-off is given here; in the data, active means T/C of 150% or more; inactive means T/C below 125%.

Test system: L1210 leukemia ip in BDF1 mice, survival T/C
Assay: NCI In Vivo Anticancer Drug Screen. Data for tumor model L1210 Leukemia (intraperitoneal) in B6D2F1 (BDF1) mice
Conditions: endpoint: mean survival time, higher = longer survival
In short: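 Tumor cells were implanted, animals were treated, and survival was followed. The result divides the treated measurement by the vehicle-control measurement.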

[1] = dose: 100.0 mg/kg/injection, schedule: Q01DX009 (ip), vehicle: Klucel (hydroxypropylcellulose) (HPC)
[2] = dose: 200.0 mg/kg/injection, schedule: Q01DX009 (ip), vehicle: Klucel (hydroxypropylcellulose) (HPC)
[3] = dose: 400.0 mg/kg/injection, schedule: Q01DX009 (ip), vehicle: Klucel (hydroxypropylcellulose) (HPC)
[4] = dose: 100.0 mg/kg/injection, schedule: Q01DX009 (ip), vehicle: saline with Tween-80
[5] = dose: 200.0 mg/kg/injection, schedule: Q01DX009 (ip), vehicle: saline with Tween-80
[6] = dose: 100.0 mg/kg/injection, schedule: Q04DX003 (ip), vehicle: Klucel (hydroxypropylcellulose) (HPC)
[7] = dose: 200.0 mg/kg/injection, schedule: Q04DX003 (ip), vehicle: Klucel (hydroxypropylcellulose) (HPC)
[8] = dose: 400.0 mg/kg/injection, schedule: Q04DX003 (ip), vehicle: Klucel (hydroxypropylcellulose) (HPC)
[9] = dose: 100.0 mg/kg/injection, schedule: Q04DX003 (ip), vehicle: saline with Tween-80
[10] = dose: 200.0 mg/kg/injection, schedule: Q04DX003 (ip), vehicle: saline with Tween-80
[11] = dose: 400.0 mg/kg/injection, schedule: Q04DX003 (ip), vehicle: saline with Tween-80
[12] = dose: 100.0 mg/kg/injection, schedule: Q04DX003 (ip), vehicle: saline
[13] = dose: 200.0 mg/kg/injection, schedule: Q04DX003 (ip), vehicle: saline
[14] = dose: 100.0 mg/kg/injection, schedule: Q01DX009 (ip), vehicle: saline
[15] = dose: 200.0 mg/kg/injection, schedule: Q01DX009 (ip), vehicle: saline
[16] = dose: 400.0 mg/kg/injection, schedule: Q01DX009 (ip), vehicle: saline
[17] = dose: 100.0 mg/kg/injection, schedule: Q04DX002 (ip), vehicle: saline
[18] = dose: 200.0 mg/kg/injection, schedule: Q04DX002 (ip), vehicle: saline
[19] = dose: 400.0 mg/kg/injection, schedule: Q01DX009 (ip), vehicle: saline with Tween-80
[20] = dose: 100.0 mg/kg/injection, schedule: Q01DX001 (ip), vehicle: saline
[21] = dose: 200.0 mg/kg/injection, schedule: Q01DX001 (ip), vehicle: saline
[22] = dose: 400.0 mg/kg/injection, schedule: Q01DX001 (ip), vehicle: saline

Measured: T/C

CC1CN1C1=C(F)C(=O)C(N2CC2C)=C(F)C1=O (configuration not stated)
inactive: dose: 0.19 mg/kg/injection, schedule: Q01DX009 (ip), vehicle: Klucel (hydroxypropylcellulose) (HPC) 105 % of control | dose: 0.39 mg/kg/injection, schedule: Q01DX009 (ip), vehicle: Klucel (hydroxypropylcellulose) (HPC) 104 % of control | dose: 0.78 mg/kg/injection, schedule: Q01DX009 (ip), vehicle: Klucel (hydroxypropylcellulose) (HPC) 102 % of control | dose: 0.78 mg/kg/injection, schedule: Q04DX003 (ip), vehicle: Klucel (hydroxypropylcellulose) (HPC) 103 % of control | dose: 1.56 mg/kg/injection, schedule: Q01DX009 (ip), vehicle: Klucel (hydroxypropylcellulose) (HPC) 100 % of control | dose: 1.56 mg/kg/injection, schedule: Q04DX003 (ip), vehicle: Klucel (hydroxypropylcellulose) (HPC) 105 % of control | dose: 3.12 mg/kg/injection, schedule: Q01DX009 (ip), vehicle: Klucel (hydroxypropylcellulose) (HPC) 100 % of control | dose: 3.12 mg/kg/injection, schedule: Q04DX003 (ip), vehicle: Klucel (hydroxypropylcellulose) (HPC) 101 % of control | dose: 4.6 mg/kg/injection, schedule: Q01DX009 (ip), vehicle: Klucel (hydroxypropylcellulose) (HPC) 103 % of control

CCOC(=O)c1ccc(NC(=O)Oc2ccc(Cl)cc2C)cc1
inactive: [1] 101 % of control | [2] 92 % of control | [3] 95 % of control

CC(=O)Nc1ccc(NC(=O)NCCCCCCNC(=O)Nc2ccc(NC(C)=O)cc2)cc1
inactive: [1] 102 % of control | [2] 98 % of control | [3] 100 % of control

Nc1ccc(Cl)cc1C(=O)c1ccccc1
inactive: dose: 25.0 mg/kg/injection, schedule: Q04DX002 (ip), vehicle: DMSO 95 % of control | dose: 50.0 mg/kg/injection, schedule: Q04DX002 (ip), vehicle: DMSO 89 % of control | dose: 100.0 mg/kg/injection, schedule: Q04DX002 (ip), vehicle: DMSO 106 % of control and 88 % of control

COc1ccc(OC)c(NC(=S)NC(=O)c2ccccc2F)c1
inactive: [4] 94 % of control | [5] 86 % of control

O=C(Nc1cccc(Cl)c1)c1ccccc1
inactive: [1] 94 % of control | [6] 92 % of control | [2] 94 % of control | [7] 90 % of control | [3] 97 % of control | [8] 101 % of control

CCOC(=O)c1cc2sccc2[nH]1
inactive: [9] 100 % of control | [10] 100 % of control | [11] 93 % of control

CCC(C)C(CN)(CCCN1CCCCC1)c1cccc2ccccc12 (configuration not stated)
inactive: [12] 97 % of control | [13] 95 % of control

CC(=O)c1c[nH]c2ccccc12
inactive: [14] 101 % of control | [15] 108 % of control | [16] 95 % of control

Cc1ccc(NN)cc1Cl
inactive: [6] 105 % of control | [7] 91 % of control

CC(C)(C)OC(=O)NO
inactive: [14] 103 % of control | [17] 110 % of control | [12] 104 % of control | [15] 100 % of control | [18] 98 % of control | [13] 104 % of control | [16] 108 % of control | dose: 400.0 mg/kg/injection, schedule: Q04DX002 (ip), vehicle: saline 110 % of control | dose: 400.0 mg/kg/injection, schedule: Q04DX003 (ip), vehicle: saline 106 % of control

Cc1ccc(NC(c2cc(Br)ccc2O)P(=O)(c2ccccc2)c2ccccc2)c([N+](=O)[O-])c1 (configuration not stated)
inactive: [1] 93 % of control | [2] 96 % of control | [3] 96 % of control

CCCC[n+]1cnc(N)c2[nH]cnc21
inactive: dose: 50.0 mg/kg/injection, schedule: Q04DX003 (ip), vehicle: saline 93 % of control | [12] 91 % of control | [13] 100 % of control

CN(C)c1ccc(/C=C/c2nc3ccccc3o2)cc1
inactive: [1] 95 % of control | [2] 95 % of control | [3] 94 % of control

Cc1ncc(C(=O)c2ccccc2)n1Cc1ccccc1
inactive: dose: 100.0 mg/kg/injection, schedule: Q01DX001 (ip), vehicle: saline with Tween-80 88 % of control | [9] 94 % of control | dose: 200.0 mg/kg/injection, schedule: Q01DX001 (ip), vehicle: saline with Tween-80 90 % of control | [5] 94 % of control and 107 % of control | [10] 92 % of control | dose: 400.0 mg/kg/injection, schedule: Q01DX001 (ip), vehicle: saline with Tween-80 95 % of control | [19] 96 % of control and 100 % of control | [11] 90 % of control

O=C1OC(c2ccccc2)=N/C1=C/c1cccs1
inactive: [1] 104 % of control | [6] 98 % of control | [2] 97 % of control | [7] 104 % of control | [3] 101 % of control | [8] 106 % of control

CC(=O)OC1CC(n2cc(C)c(=O)[nH]c2=O)OC1COP(=O)(N1CC1(C)C)N1CC1(C)C (configuration not stated)
inactive: dose: 50.0 mg/kg/injection, schedule: Q04DX002 (ip), vehicle: saline 110 % of control | [17] 112 % of control | [18] 123 % of control

CSc1nsc(SC)c1C#N
inactive: [1] 103 % of control | [2] 97 % of control | [3] 92 % of control

NC(=S)N1N=C(c2cccc([N+](=O)[O-])c2)CCC1=O
inactive: [4] 92 % of control | [5] 92 % of control | [19] 101 % of control

CSc1cc2c(cc1NC(C)=O)Cc1ccccc1-2
inactive: dose: 100.0 mg/kg/injection, schedule: Q01DX001 (ip), vehicle: carboxymethylcellulose (CMC) 93 % of control | dose: 200.0 mg/kg/injection, schedule: Q01DX001 (ip), vehicle: carboxymethylcellulose (CMC) 95 % of control | dose: 400.0 mg/kg/injection, schedule: Q01DX001 (ip), vehicle: carboxymethylcellulose (CMC) 95 % of control

Nc1nc2ccccc2n1C1OC(CO)C(O)C1O (configuration not stated)
inactive: [20] 101 % of control | [21] 95 % of control | [22] 104 % of control

COc1ccc2c(c1)CCC1=C2CCC2(C)C(=O)OC(=O)C12 (configuration not stated)
inactive: [1] 103 % of control | [6] 102 % of control | [2] 97 % of control | [7] 93 % of control | [3] 101 % of control | [8] 111 % of control

O=[N+]([O-])c1cc([N+](=O)[O-])c(Cl)cc1Cl
inactive: dose: 3.13 mg/kg/injection, schedule: Q01DX009 (ip), vehicle: Klucel (hydroxypropylcellulose) (HPC) 101 % of control | dose: 6.25 mg/kg/injection, schedule: Q01DX009 (ip), vehicle: Klucel (hydroxypropylcellulose) (HPC) 106 % of control | dose: 12.5 mg/kg/injection, schedule: Q01DX009 (ip), vehicle: Klucel (hydroxypropylcellulose) (HPC) 106 % of control | [6] 96 % of control | [7] 89 % of control

Nc1nc(N)c2nc(CNc3cccc4ccccc34)cnc2n1
inactive: dose: 10.0 mg/kg/injection, schedule: Q01DX009 (ip), vehicle: Klucel (hydroxypropylcellulose) (HPC) 102 % of control | dose: 20.0 mg/kg/injection, schedule: Q01DX009 (ip), vehicle: Klucel (hydroxypropylcellulose) (HPC) 102 % of control | dose: 40.0 mg/kg/injection, schedule: Q01DX009 (ip), vehicle: Klucel (hydroxypropylcellulose) (HPC) 100 % of control

CC(=O)c1ccc(N=NC2C(=O)N(c3ccccc3)N=C2C)cc1 (configuration not stated)
inactive: [20] 96 % of control | [21] 94 % of control | [22] 102 % of control

O=C1NC(=O)C(c2ccc(F)cc2)N1 (configuration not stated)
inactive: dose: 50.0 mg/kg/injection, schedule: Q01DX001 (ip), vehicle: saline 100 % of control | [20] 100 % of control | [21] 97 % of control | [22] 97 % of control

CC(C)(C)OC(=O)c1c2ccccc2cc2ccccc12
inactive: dose: 100.0 mg/kg/injection, schedule: Q04DX002 (ip), vehicle: gum acacia 99 % of control | dose: 200.0 mg/kg/injection, schedule: Q04DX002 (ip), vehicle: gum acacia 101 % of control | dose: 400.0 mg/kg/injection, schedule: Q04DX002 (ip), vehicle: gum acacia 105 % of control

CC(C)(O)C(O)(c1ccccc1)c1ccccc1
inactive: [20] 103 % of control | [21] 97 % of control | [22] 95 % of control

OCC1OC(Sc2ncc3cnccn23)C(O)C(O)C1O (configuration not stated)
inactive: dose: 100.0 mg/kg/injection, schedule: Q01DX005 (ip), vehicle: saline 100 % of control | dose: 200.0 mg/kg/injection, schedule: Q01DX005 (ip), vehicle: saline 100 % of control
